According to ChEMBL document CHEMBL1139227, “Discovery of a series of 6,7-dimethoxy-4-pyrrolidylquinazoline PDE10A inhibitors” (J Med Chem, 2007):
Calls of active or inactive are those of the source. The calls are words filed in the database; no cut-off is given here.

How the values were obtained:
[1] = molecular target: cGMP-inhibited 3',5'-cyclic phosphodiesterase 3B (Homo sapiens, UniProt Q13370); assay: Inhibition of human recombinant PDE3B transfected in Sf9 cells by SPA
[2] = Inhibition of rat recombinant PDE10A transfected in Sf9 cells by SPA
[3] = molecular target: cGMP-inhibited 3',5'-cyclic phosphodiesterase 3A (Homo sapiens, UniProt Q14432); assay: Inhibition of human recombinant PDE3A transfected in Sf9 cells by SPA
Chain of cGMP-inhibited 3',5'-cyclic phosphodiesterase 3A (Q14432 whole entry): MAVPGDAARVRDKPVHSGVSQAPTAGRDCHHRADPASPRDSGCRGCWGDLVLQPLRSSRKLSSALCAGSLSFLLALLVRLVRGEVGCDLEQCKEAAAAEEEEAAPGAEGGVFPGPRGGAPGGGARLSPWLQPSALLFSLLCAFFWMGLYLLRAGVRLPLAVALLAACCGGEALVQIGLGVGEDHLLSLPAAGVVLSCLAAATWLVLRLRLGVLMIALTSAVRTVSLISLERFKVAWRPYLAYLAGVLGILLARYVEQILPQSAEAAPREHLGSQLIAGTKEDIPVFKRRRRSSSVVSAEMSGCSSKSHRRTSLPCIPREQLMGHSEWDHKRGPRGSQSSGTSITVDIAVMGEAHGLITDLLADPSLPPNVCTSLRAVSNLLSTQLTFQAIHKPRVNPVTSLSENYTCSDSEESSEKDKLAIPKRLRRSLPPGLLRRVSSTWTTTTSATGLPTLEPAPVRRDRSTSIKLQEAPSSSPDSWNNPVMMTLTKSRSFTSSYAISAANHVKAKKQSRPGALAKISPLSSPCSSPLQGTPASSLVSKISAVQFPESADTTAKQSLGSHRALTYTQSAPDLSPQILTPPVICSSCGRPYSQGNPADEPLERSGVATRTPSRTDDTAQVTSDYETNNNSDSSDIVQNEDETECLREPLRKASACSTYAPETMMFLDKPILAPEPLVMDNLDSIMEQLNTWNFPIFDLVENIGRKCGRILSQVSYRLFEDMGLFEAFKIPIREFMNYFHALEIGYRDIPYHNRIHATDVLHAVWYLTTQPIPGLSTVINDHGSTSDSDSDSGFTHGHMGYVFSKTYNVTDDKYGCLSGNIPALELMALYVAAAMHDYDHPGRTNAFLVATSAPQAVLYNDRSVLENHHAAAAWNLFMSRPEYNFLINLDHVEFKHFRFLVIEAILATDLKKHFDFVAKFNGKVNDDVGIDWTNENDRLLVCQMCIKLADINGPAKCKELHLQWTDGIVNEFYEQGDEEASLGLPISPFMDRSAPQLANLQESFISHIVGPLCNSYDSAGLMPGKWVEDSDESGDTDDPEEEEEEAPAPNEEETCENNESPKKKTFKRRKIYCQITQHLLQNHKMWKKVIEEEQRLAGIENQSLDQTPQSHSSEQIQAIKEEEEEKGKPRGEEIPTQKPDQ

Mus musculus [4] = assay: Increase of phosphorylated CREB level in CD1 mice striatal tissue at 32 mg/kg, sc after 30 mins; assay type: functional, organism-based; design: dose 32 mg/kg; details: Striatum
Mus musculus [5] = assay: Increase of cGMP level in CD1 mouse striatal tissue at 32 mg/kg, sc; assay type: functional, organism-based; design: dose 32 mg/kg; details: Striatum
Mus musculus [6] = assay: Increase of phosphorylated CREB level in CD1 mice striatal tissue at 32 mg/kg, sc after 90 mins; assay type: functional, organism-based; design: dose 32 mg/kg; details: Striatum
Mus musculus [7] = assay: Increase of cGMP level in CD1 mouse striatal tissue at 10 mg/kg, sc; assay type: functional, organism-based; design: dose 10 mg/kg; details: Striatum

Chain of cGMP-inhibited 3',5'-cyclic phosphodiesterase 3B (Q13370 whole entry): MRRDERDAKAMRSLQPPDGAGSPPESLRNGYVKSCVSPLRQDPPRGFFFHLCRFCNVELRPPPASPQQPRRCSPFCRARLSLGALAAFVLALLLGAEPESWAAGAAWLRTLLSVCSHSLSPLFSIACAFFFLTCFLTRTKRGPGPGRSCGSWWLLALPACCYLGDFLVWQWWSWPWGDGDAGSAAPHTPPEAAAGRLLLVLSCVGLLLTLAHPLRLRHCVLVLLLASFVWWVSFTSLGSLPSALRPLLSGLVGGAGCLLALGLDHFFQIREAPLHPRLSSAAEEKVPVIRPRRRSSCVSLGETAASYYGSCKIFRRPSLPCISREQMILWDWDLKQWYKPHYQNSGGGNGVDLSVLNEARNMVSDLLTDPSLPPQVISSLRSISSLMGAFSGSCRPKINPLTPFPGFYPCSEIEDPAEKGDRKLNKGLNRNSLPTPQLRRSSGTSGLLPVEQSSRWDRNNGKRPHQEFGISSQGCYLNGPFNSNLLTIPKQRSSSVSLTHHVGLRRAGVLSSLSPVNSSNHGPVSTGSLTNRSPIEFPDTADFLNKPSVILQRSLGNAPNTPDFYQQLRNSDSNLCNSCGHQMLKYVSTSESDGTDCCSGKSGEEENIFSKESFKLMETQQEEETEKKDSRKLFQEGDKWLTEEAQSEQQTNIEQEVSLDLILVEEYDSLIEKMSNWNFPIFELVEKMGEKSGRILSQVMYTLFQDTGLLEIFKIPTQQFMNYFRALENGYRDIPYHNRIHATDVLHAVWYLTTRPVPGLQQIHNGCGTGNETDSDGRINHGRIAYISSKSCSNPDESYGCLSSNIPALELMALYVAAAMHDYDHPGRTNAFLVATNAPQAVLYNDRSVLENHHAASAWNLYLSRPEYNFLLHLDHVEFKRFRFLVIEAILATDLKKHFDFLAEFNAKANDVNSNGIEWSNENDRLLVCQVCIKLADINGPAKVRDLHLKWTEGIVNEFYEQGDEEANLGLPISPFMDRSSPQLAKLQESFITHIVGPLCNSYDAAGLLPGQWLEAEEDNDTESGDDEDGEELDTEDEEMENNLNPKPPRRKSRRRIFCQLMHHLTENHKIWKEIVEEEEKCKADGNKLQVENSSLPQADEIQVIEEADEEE

| SMILES | Ki [1] | Ki [2] | Ki [3] | Activity (Mus musculus [4]) | Activity (Mus musculus [5]) | IC50 [2] | Activity (Mus musculus [6]) | Activity (Mus musculus [7]) |
| --- | --- | --- | --- | --- | --- | --- | --- | --- |
| COc1cc2ncnc(N3CC[C@@H](Oc4ccccc4C#N)C3)c2cc1OC | < 100 nM | 130 nM | < 100 nM |  |  |  |  |  |
| CCOc1cccc(O[C@@H]2CCN(c3ncnc4cc(OC)c(OC)cc34)C2)c1 | 88 nM | 94 nM | 61 nM |  |  |  |  |  |
| COc1cc2ncnc(N3CC[C@@H](Oc4cccc5ccccc45)C3)c2cc1OC | 56 nM | 210 nM | 48 nM |  |  |  |  |  |
| COc1cc2ncnc(N3CC[C@@H](Oc4ccccc4C)C3)c2cc1OC | < 100 nM | 326 nM | < 100 nM |  |  |  |  |  |
| COc1cc2ncnc(N3CC[C@@H](Oc4cccc(C(C)C)c4)C3)c2cc1OC | 474 nM | 171 nM | 370 nM |  |  |  |  |  |
| COc1cc2ncnc(N3CC[C@@H](Oc4ccccc4Cl)C3)c2cc1OC | < 100 nM | 198 nM | < 100 nM |  |  |  |  |  |
| COc1cc2ncnc(N3CC[C@@H](Oc4cnc5ccccc5n4)C3)c2cc1OC | 273 nM |  | 211 nM | Active | Active | 6 nM | Active | Active |
| COc1cc2ncnc(N3CC[C@@H](Oc4ccc5ncccc5c4)C3)c2cc1OC | 201 nM | 12 nM | 104 nM |  |  |  |  |  |
| COc1cc2ncnc(N3CC[C@@H](Oc4ccccn4)C3)c2cc1OC | 207 nM | 123 nM | 77 nM |  |  |  |  |  |
| COc1cc2ncnc(N3CC[C@@H](Oc4cc5ccccc5cn4)C3)c2cc1OC | 196 nM | 19 nM | 151 nM |  |  |  |  |  |
| COc1cc2ncnc(N3CC[C@@H](Oc4ccccc4OC)C3)c2cc1OC | > 100 nM | 240 nM | < 100 nM |  |  |  |  |  |
| COc1cc2ncnc(N3CC[C@@H](Oc4ccc5cccnc5c4)C3)c2cc1OC | 240 nM | 12 nM | 209 nM |  |  |  |  |  |
| COc1ccc(O[C@@H]2CCN(c3ncnc4cc(OC)c(OC)cc34)C2)cc1OC | 260 nM | 67 nM | 121 nM |  |  |  |  |  |
| COc1ccc(Cc2nccc3cc(OC)c(OC)cc23)cc1OC [PAPAVERINE] |  | 17 nM |  |  |  |  |  |  |
| COc1ccc2cc(O[C@@H]3CCN(c4ncnc5cc(OC)c(OC)cc45)C3)ccc2c1 | 280 nM | 18 nM | 199 nM |  |  |  |  |  |
| COc1cc2ncnc(N3CC[C@@H](Oc4ccccc4C(F)(F)F)C3)c2cc1OC | > 100 nM | 811 nM | < 100 nM |  |  |  |  |  |
| COc1cc2ncnc(N3CC[C@@H](Oc4ccc5nc(C)ccc5c4)C3)c2cc1OC | 223 nM | 18 nM | 152 nM |  |  |  |  |  |
| COc1cc2ncnc(N3CC[C@@H](Oc4ccc(C(C)(C)C)cc4)C3)c2cc1OC | 1890 nM | 100 nM | 720 nM |  |  |  |  |  |
| COc1cc2ncnc(N3CC[C@@H](Oc4ncc(Cl)cn4)C3)c2cc1OC | 332 nM | 44 nM | 162 nM |  |  |  |  |  |
| CCOc1ccc(O[C@@H]2CCN(c3ncnc4cc(OC)c(OC)cc34)C2)cc1 | 328 nM | 54 nM | 161 nM |  |  |  |  |  |
| COc1cc2ncnc(N3CCc4ccc(S(=O)(=O)N5CCN(C)CC5)cc4C3)c2cc1OC |  | 25 nM |  |  |  |  |  |  |
| COc1cc2ncnc(N3CC[C@@H](Oc4cccc(-c5ccccc5)c4)C3)c2cc1OC | 280 nM | 136 nM | 271 nM |  |  |  |  |  |
| COc1cc2ncnc(N3CC[C@@H](Oc4cccnc4)C3)c2cc1OC | 748 nM | 128 nM | 302 nM |  |  |  |  |  |
| COc1ccc2ccc(O[C@@H]3CCN(c4ncnc5cc(OC)c(OC)cc45)C3)cc2c1 | 305 nM | 17 nM | 273 nM |  |  |  |  |  |
| COc1cc2ncnc(N3CC[C@@H](Oc4ccncc4)C3)c2cc1OC | 685 nM | 112 nM | 226 nM |  |  |  |  |  |
| COc1cc2ncnc(N3CC[C@@H](Oc4ccc(C#N)cc4)C3)c2cc1OC | 471 nM |  | 214 nM |  |  |  |  |  |
| COc1cc2ncnc(N3CC[C@@H](Oc4ccc(OC(F)(F)F)cc4)C3)c2cc1OC | 1820 nM | 185 nM | 739 nM |  |  |  |  |  |
| COc1cc2ncnc(N3CC[C@@H](Oc4ccc5ccccc5c4)C3)c2cc1OC | 463 nM |  | 283 nM |  |  | 14 nM |  |  |
| COc1cc2ncnc(N3CC[C@@H](Oc4ccc5c(c4)CCC5)C3)c2cc1OC | 237 nM | 68 nM | 141 nM |  |  |  |  |  |
| COc1cc2ncnc(N3CC[C@H](Oc4ccccc4OC)C3)c2cc1OC | > 100 nM | 641 nM | > 100 nM |  |  |  |  |  |
